Results: patent publication US12195467B2, “Compound having TrkA inhibitory activity and pharmaceutical composition, for preventing or alleviating pain, containing same as active ingredient” (JBKLAB CO., LTD., priority 2018, dated 2025)

Key:
TrkA = biological target: T1, TrkA (Homo sapiens, UniProt P04629); experiment: TrkA inhibitory activity, CycLex TrkA kinase assay/inhibitor screening kit; assay type: biochemical; conditions: for inhibition at 1 µM: compound 1 μM, read-out: % inhibition rate (based on 1 μM)
T1 construct: purchased MBL International (CycLex) CY-1091
T1 sequence (P04629 33-796): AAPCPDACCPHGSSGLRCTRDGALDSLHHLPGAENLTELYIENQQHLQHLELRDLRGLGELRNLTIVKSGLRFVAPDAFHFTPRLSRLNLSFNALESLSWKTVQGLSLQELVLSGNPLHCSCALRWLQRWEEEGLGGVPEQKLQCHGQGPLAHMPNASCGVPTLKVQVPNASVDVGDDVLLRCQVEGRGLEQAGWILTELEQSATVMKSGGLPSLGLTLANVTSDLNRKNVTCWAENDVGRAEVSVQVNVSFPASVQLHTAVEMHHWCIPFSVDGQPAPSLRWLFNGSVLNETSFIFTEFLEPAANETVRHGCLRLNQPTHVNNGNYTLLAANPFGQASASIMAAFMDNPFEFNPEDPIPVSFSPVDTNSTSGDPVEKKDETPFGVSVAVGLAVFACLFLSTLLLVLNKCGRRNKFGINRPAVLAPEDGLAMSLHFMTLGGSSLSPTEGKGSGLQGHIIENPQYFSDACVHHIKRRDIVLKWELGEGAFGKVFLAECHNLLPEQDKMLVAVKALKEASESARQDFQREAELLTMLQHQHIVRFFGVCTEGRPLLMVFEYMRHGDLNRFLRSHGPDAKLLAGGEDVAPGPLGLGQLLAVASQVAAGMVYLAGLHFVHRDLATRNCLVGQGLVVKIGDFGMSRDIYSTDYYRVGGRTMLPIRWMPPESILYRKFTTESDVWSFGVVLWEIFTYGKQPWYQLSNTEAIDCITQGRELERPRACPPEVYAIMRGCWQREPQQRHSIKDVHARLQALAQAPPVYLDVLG
Method: The TrkA inhibitory activity of the compounds was evaluated using CycLex® TrkA kinase assay/inhibitor screening kit of MBL International (Cat No. CY-1091). The test was carried out according to the analysis method provided by the manufacturer. The test method is as follows.
1. 1× wash buffer was prepared by diluting 10× wash buffer in ddH2O.
2. 20×ATP solution (1.25 mM) was prepared by adding 1.6 mL of distilled water to the tube containing ATP dissolved in NA2 salt and freeze-dried.
4. A working solution mixture and a solution of the appropriate concentration of the example compound to evaluate the activity of the example compound were prepared and dispensed into a 96-well plate as shown in table below.
5. After dispensing the solutions into a 96-well plate, the plate was incubated at 30° C. for 30 minutes.
6. After incubation of the plate at 30° C. for 30 minutes, 200 μL of 1× wash buffer was added into each well of the plate, followed by washing. This process was repeated 5 times.
7. After washing the plate, 100 μL of HRP conjugated detection antibody (PX-39) was added into each well of the plate, followed by reaction at room temperature for 60 minutes.
8. Upon completion of the reaction, 200 μL of 1× wash buffer was added into each well of the plate, followed by washing. This process was repeated 5 times.
9. After washing the plate, 100 μL of substrate reagent containing chromogenic substrate and tetra-methylbenzidine (TMB) was added into each well of the plate, followed by incubation at room temperature for 5-15 minutes.
10. Upon completion of the reaction, 100 μL of stop solution (1 N H2SO4) was added into each well of the plate, followed by measuring OD450 within 30 minutes.

TrkB = biological target: T2, TrkB (Homo sapiens, UniProt Q16620); experiment: PathHunter eXpress TrkB functional assay kit (U2OS cells, agonist BDNF); assay type: cell-based; conditions: compound 1 μM, read-out: TrkB % inhibition rate (based on 1 μM)
T2 construct: host or cells: U2OS
T2 sequence (Q16620 32-822): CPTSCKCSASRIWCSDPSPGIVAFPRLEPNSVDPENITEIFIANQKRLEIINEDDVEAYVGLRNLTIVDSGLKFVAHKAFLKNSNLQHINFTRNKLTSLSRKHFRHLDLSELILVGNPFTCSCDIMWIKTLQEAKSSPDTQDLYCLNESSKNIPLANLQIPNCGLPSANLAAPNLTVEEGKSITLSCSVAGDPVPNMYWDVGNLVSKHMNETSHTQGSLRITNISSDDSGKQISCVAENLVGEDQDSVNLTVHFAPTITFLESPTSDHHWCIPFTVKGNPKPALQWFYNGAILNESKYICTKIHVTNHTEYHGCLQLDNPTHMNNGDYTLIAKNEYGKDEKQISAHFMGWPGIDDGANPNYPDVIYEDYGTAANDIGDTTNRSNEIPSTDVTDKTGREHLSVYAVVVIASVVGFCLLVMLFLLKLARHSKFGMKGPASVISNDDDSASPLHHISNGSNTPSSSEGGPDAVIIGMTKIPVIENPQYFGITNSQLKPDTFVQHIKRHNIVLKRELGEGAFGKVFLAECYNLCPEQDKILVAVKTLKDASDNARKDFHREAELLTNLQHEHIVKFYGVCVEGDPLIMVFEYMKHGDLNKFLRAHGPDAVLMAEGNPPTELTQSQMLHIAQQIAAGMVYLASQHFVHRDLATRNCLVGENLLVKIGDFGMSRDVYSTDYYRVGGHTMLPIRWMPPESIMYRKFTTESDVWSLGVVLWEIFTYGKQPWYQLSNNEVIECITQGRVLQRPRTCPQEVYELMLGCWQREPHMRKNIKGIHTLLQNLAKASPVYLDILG
Method: (§1) The inhibitory activity of the example compounds against TrkB and TrkC was evaluated using PathHunter® eXpress TrkB or TrkC functional assay kit (Product Code: 93-0463E3 and 93-0464E3) of DiscoverX. The test was carried out according to the analysis method provided by the manufacturer. The test was carried out as follows over 2 or 3 days depending on the conditions of cells.
(§2) 1. Before starting the experiment, the cell plating (CP) reagent stored at −80° C. was dissolved in a 37° C. water bath.
(§3) 2. When the CP reagent was dissolved, cell vials for TrkB or TrkC were prepared to be dissolved.
(§4) 3. Two U2OS cell vials (TrkB kit & TrkC kit) stored in liquid nitrogen were thawed.
(§5) 4. 500 μL of CP reagent was added to the thawed cell vial, and the cells were sufficiently mixed by pipetting and transferred to a Conical tube in which 11.5 mL of CP reagent was dispensed.
(§6) 5. 12 mL cells (1×10^6 cells in CP reagent) were seeded on a 96-well tissue culture treated plate (100 μL/well), followed by culture in a 37° C., 5% CO2 humidified incubator for 24 hours or 48 hours.
(§7) Day 2 or Day 3: Treatment of Test Material
(§8) 1. Test material, agonist and antagonist were prepared as stock solutions according to the experiment design. • Test material: 10 mM Stock solution in DMSO • Antagonist (GNF-5837): 10 mM Stock solution in 1.8674 mL DMSO • Agonist: TrkB agonist→BDNF, TrkC agonist→NT-3
(§9) 2. 10 mM stock solutions of teat material and antagonist having the concentration of 22 times more concentrated than the final screening concentration were prepared according to the experiment design.
(§10) 3. Each well of the 96-well culture plate containing cells was treated with 5 μL of the solutions of teat material and antagonist having the concentration of 22 times more concentrated than the final screening concentration (#2), followed by incubation at 37° C. for 60 minutes.
(§11) 4. During the incubation, 10 μg/mL stock solution of each agonist for TrkB and TrkC was prepared using a reconstitution buffer for the purpose of the experiment, and each well of the plate was treated with 5 μL of the prepared solution, followed by incubation at 19-25° C. for 3 hours.
(§12) 5. During the incubation, a detection reagent working solution (4.75 ml Cell assay buffer, 1.25 ml Substrate Reagent 1, 0.25 ml Substrate Reagent 2) was prepared. Upon completion of the incubation, 55 μL of the working solution was added into each well of the plate.
(§13) 7. The plate was incubated at room temperature for 60 minutes in a dark place, and the […] was measured with a luminescence plate reader.

TrkC = biological target: T3, TrkC (Homo sapiens, UniProt Q16288); experiment: PathHunter eXpress TrkC functional assay kit (U2OS cells, agonist NT-3); assay type: cell-based; conditions: for inhibition at 1 µM: compound 1 μM, read-out: TrkC % inhibition rate (based on 1 μM)
T3 construct: host or cells: U2OS
T3 sequence (Q16288 32-839): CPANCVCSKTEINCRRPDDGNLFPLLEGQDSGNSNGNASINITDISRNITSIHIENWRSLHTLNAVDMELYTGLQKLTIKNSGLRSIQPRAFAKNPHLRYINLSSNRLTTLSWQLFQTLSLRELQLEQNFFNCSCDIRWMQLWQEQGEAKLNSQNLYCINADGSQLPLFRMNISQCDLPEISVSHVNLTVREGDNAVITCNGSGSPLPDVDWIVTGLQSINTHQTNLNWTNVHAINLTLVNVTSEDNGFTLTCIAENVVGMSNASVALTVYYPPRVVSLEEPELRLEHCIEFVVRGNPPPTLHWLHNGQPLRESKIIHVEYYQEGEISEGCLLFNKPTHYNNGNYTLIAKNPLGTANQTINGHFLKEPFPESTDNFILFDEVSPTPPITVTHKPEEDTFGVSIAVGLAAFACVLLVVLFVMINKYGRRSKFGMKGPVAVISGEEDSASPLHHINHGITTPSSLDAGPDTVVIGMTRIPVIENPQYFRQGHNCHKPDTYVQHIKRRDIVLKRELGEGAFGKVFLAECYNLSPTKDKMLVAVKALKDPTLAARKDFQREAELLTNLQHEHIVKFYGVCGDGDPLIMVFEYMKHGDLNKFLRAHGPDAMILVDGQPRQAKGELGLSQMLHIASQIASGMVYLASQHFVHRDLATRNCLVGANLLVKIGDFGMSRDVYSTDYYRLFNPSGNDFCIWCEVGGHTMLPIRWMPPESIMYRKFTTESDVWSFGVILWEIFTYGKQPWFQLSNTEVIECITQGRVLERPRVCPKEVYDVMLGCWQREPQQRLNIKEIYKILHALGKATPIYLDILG
Method: as §1, §2, §3, §4, §5, §6, §7, §8, §9, §10, §11, §12, §13

[1] = system: postoperative pain animal model; experiment: Pharmacological activity in postoperative pain model (von-Frey mechanical allodynia, 50% withdrawal threshold); assay type: in vivo, Sprague-Dawley male rats; conditions: oral, rat postoperative pain model, 2 days after surgery; for ED50: 48 h, read-out: ED50
Method: Sprague-Dawley male rats weighing around 150 g (Orient bio., Korea) were used. Rats were raised in an environment where a 12-hour light-dark cycle was maintained, 4 per transparent plastic cage covered with scob as bedding. Food and water were provided freely. To verify the analgesic effect of the example compounds, all rats were anesthetized with O2 delivered from the induction chamber at a ratio of 3:3 of isoflurane and operated. Anesthetized rats were placed on a 37° C. warm plate to prevent hypothermia during the operation. The ipsilateral sole (left) of the hind paw of the experimental animal was disinfected with 10% povidone-iodine solution, and incised to a length of 1 cm with a #11 surgical knife. The incision was made starting from 0.5 cm of the proximal edge of the heel through the skin and fascia on the side of the ipsilateral sole toward the toe. After the incision, a gentle pressure was applied to the incision site to stop the bleeding and the skin was sutured. The surgical site was sterilized with 10% povidone-iodine solution, and gentamicin (8 mg/kg) was administered intraperitoneally to prevent infection. The analgesic effect of the compound on postoperative pain was evaluated in the experimental animals 2 days after the surgery. […] The formula for calculating the 50% withdrawal threshold (g) is as follows. 50% Withdrawal threshold (g)=(10^(x+kd))/10^4 [Mathematical Formula 1] • x=the value of the last tested filament (log unit value). • k=the value indicating positive/negative reaction by up-down method. • d=the value fixed at 0.224 as the average difference between stimuli.

SMILES | IC50 (TrkA) [nM] | inhibition at 1 µM (TrkA) [%] | inhibition at 1 µM (TrkB) [%] | IC50 (TrkC) [nM] | inhibition at 1 µM (TrkC) [%] | ED50 [1] [mg/kg] | Maximum duration of drug efficacy [1] [h]
CN1CCN(c2ccc(C(=O)Nc3n[nH]c4ncc(-c5ccccc5)cc34)cc2)CC1 [Example 10, 4-(4-methylpiperazine-1-yl)-N-(5-phenyl-1H-pyrazolo[3,4-b]pyridine-3-yl)benzamide] | 213 | 98 | 27 | 1070 | 49 | 3.8 | 0.5
Oc1c(Cl)cc(-c2c[nH]c3ncnc(-c4cnn(C5CCNCC5)c4)c23)cc1Cl [Example 15, 2,6-dichloro-4-(4-(1-(piperidine-4-yl)-1H-pyrazole-4-yl)-7H-pyrrolo[2,3-d]pyrimidine-5-yl)phenol] |  | 95 | 4 |  | -16 | 20.1 | 0.5
CN1CCN(c2ccc(C(=O)Nc3n[nH]c4ncc(-c5ccncc5)cc34)cc2)CC1 [Example 13, 4-(4-methylpiperazine-1-yl)-N-(5-(pyridine-4-yl)-1H-pyrazolo[3,4-b]pyridine-3-yl)benzamide] | 179 | 99 | -1 |  | 0 | 11.5 | 1.0
CN1CCN(c2ccc(C(=O)Nc3n[nH]c4ncc(Br)cc34)cc2)CC1 [Example 14, N-(5-bromo-1H-pyrazolo[3,4-b]pyridine-3-yl)-4-(4-methylpiperazine-1-yl)benzamide] | 122 | 101 | -8 |  | -20 | 3.8 | 0.5
